A short description of this data set: photoluminescence quantum yield (fraction); solvent given as SMILES.

Take `N#Cc1ccc(Oc2ccc3c4c(cccc24)C(=O)N(CCO)C3=O)cc1`: where the note is “in ClC(Cl)Cl”, the photoluminescence quantum yield came to 0.55.
`CCOC(=O)COc1ccc(/C=C/C2=C3c4ccccc4C(c4[nH]c(C)cc4C)=[N+]3[B-](F)(F)n3c(C)cc(C)c32)cc1`: the photoluminescence quantum yield by setting is: (in C1CCOC1) 0.012; (in CC#N) 0.005; (in CCCCCC) 0.013; (in CO) 0.002; (in Cc1ccccc1) 0.012; (in ClCCl) 0.014.
For the setting “in ClC(Cl)Cl”, `F[B-]1(F)OC(c2ccccc2)=Cc2c3ccccc3cc[n+]21` registered a photoluminescence quantum yield of 0.046.
Turning to `COc1cc2c(cc1/C=C(\C#N)c1nc3ccccc3s1)c1ccccc1n2C`, the photoluminescence quantum yield (in C1CCOC1) was 0.002; the photoluminescence quantum yield (in CC#N) was 0.001; the photoluminescence quantum yield (in CCOC(C)=O) stood at 0.003; the photoluminescence quantum yield (in CN(C)C=O) stood at 0.003; the photoluminescence quantum yield (in CO) came to 0.001; the photoluminescence quantum yield (in CS(C)=O) stood at 0.004. The photoluminescence quantum yield runs as follows: (in Cc1ccccc1) 0.003; (in ClC(Cl)Cl) 0.003; (in ClCCl) 0.003.
Turning to `N#Cc1c(-n2c3ccccc3c3ccccc32)c(F)c(-n2c3ccccc3c3ccccc32)c(-n2c3ccccc3c3ccccc32)c1-n1c2ccccc2c2ccccc21`, the photoluminescence quantum yield by setting is: (in Cc1ccccc1) 0.81; (in c1ccc([Si](c2ccccc2)(c2ccc(-n3c4ccccc4c4ccccc43)cc2)c2ccc(-n3c4ccccc4c4ccccc43)cc2)cc1) 1.
As for `Cn1nc(-c2ccccc2)c2nc3cc(Cl)ccc3nc21`, the photoluminescence quantum yield came to 0.58 (in C1CCCCC1), 0.27 (in C1CCOC1) and 0.08 (in CC#N).
For `Cc1c(COC(=O)c2ccccc2Br)n2c(OCC(=O)c3ccccc3Br)c(C)c(=O)n2c1=O`, the photoluminescence quantum yield (in CCO) came to 0.841.
Regarding `CCC1=C(C)C2=C(c3c4ccccc4c(-c4ccccc4)c4ccccc34)c3c(C)c(CC)c(C)n3[B-](F)(F)[N+]2=C1C`, the photoluminescence quantum yield by setting is: (in CC#N) 0.422; (in CCCCCC) 0.903; (in CCO) 0.804; (in CN(C)C=O) 0.648; (in Cc1ccccc1) 0.858; (in ClCCl) 0.833.
For `CN(c1ccccc1)c1ccc(/C=C/c2ccccc2)cc1`, the photoluminescence quantum yield amounted to 0.31 (in CC#N) and 0.64 (in CCCCCC).
With `C1=[N+](c2ccccc2)[B-]2(Oc3c1ccc1c4c(ccc31)C=[N+](c1ccccc1)[B-]1(O4)c3ccccc3Oc3ccccc31)c1ccccc1Oc1ccccc12`, the photoluminescence quantum yield is 0.77 (in Cc1ccccc1) and 0.81 (in ClCCl).
On to `c1ccc(-c2c3ccccc3nc3cc4ccccc4cc23)cc1`, for which, under “in ClCCl”, the photoluminescence quantum yield turned out to be 0.4.
As to `CCOC(=O)COc1ccc(/C=C/C2=C3C(C)=CC(/C=C/c4ccc(OCC(=O)OCC)cc4)=[N+]3[B-](F)(F)n3c2c2ccccc2c3-c2[nH]c(C)cc2C)cc1`, for the setting “in ClCCl”, the photoluminescence quantum yield was found to be 0.01.
Consider `O=S1(=O)C2=C(c3ccccc31)C1(c3ccccc32)c2ccccc2-c2sc3ccccc3c21` (configuration not stated), for which, under “in ClCCl”, the photoluminescence quantum yield was 0.01.
Turning to `Brc1cnc(-c2ccc(N(c3ccccc3)c3ccccc3)cc2)s1`, under “in CO”, the photoluminescence quantum yield came out at 0.04.
For `Fc1c(-n2c3ccccc3c3ccccc32)c(-c2nnc(-c3ccccc3)o2)c(-n2c3ccccc3c3ccccc32)c(-n2c3ccccc3c3ccccc32)c1-n1c2ccccc2c2ccccc21`, the photoluminescence quantum yield (in Cc1ccccc1) came to 0.1.
Consider `CCOC(=O)/C(C#N)=C/c1cc2c3ccccc3n(C)c2cc1OC`, for which the photoluminescence quantum yield worked out at 0.001 (in C1CCOC1); 0.003 (in CC#N); 0.004 (in CCOC(C)=O); 0.005 (in CN(C)C=O); 0.003 (in CO); 0.01 (in CS(C)=O). This compound registered a photoluminescence quantum yield (in Cc1ccccc1) of 0.003, a photoluminescence quantum yield (in ClC(Cl)Cl) of 0.004 and a photoluminescence quantum yield (in ClCCl) of 0.003.
Where the note is “in Cc1ccccc1”, `COC(=O)/C(C#N)=c1/cc/c(=c2/cc/c(=C(\C#N)C(=O)OC)s2)s1` displayed a photoluminescence quantum yield of 0.0035.
Take `O=C(O)c1cc2c(ccc3ccccc32)oc1=O`: the photoluminescence quantum yield by setting is: (in C1COCCO1) 0.53; (in CC#N) 0.54; (in CCCCO) 0.27; (in CCO) 0.07; (in CO) 0.1; (in O) 0.41.
The compound `CCCC1(CCC)c2cc(-c3ccc(-c4ccccc4)cc3)ccc2-c2ccc(-c3ccc4c(c3)C(CCC)(CCC)c3cc(-c5ccc(-c6ccccc6)cc5)ccc3-4)cc21` yielded a photoluminescence quantum yield (in Cc1ccccc1) of 0.92.
With `c1ccc([B-]23NC(C4CCCCC4)=Nc4cccc([n+]42)N=C(C2CCCCC2)N3)cc1`, for the setting “in ClCCl”, the photoluminescence quantum yield worked out at 0.1.
For the compound `CN(C)c1ccc(C2=Nc3sc4cc(C(F)(F)F)ccc4[n+]3[B-](F)(F)O2)cc1`, the photoluminescence quantum yield is, setting by setting: (in C1CCOC1) 0.61; (in CC#N) 0.05; (in CC(C)=O) 0.13; (in Cc1ccccc1) 0.93; (in ClCCl) 1.
For `Oc1ccc(Br)cc1-c1nc2c(c3c1-c1ccccc1CC3)-c1ccccc1CC2`, where the note is “in ClCCl”, the photoluminescence quantum yield was 0.01.
`CC(C)[Si](C#Cc1ccc(C#C[Si](C(C)C)(C(C)C)C(C)C)c2nc3c(ccc4cc5ccccc5cc43)nc12)(C(C)C)C(C)C` yielded a photoluminescence quantum yield (in CCCCCC) of 0.37.
In turn, `CCCN1c2ccccc2Sc2cc(/C=C\c3cc(=O)oc4cc(C)ccc34)ccc21` came in with a photoluminescence quantum yield (in ClC(Cl)Cl) of 0.27.
For `CCC(CC)COC1=CC2=C3c4cc(OCC(CC)CC)c(-c5ccccc5)n4[B-](F)(F)[n+]4c3n(c3cc(C(C)(C)C)ccc34)[B-](F)(F)[N+]2=C1c1ccccc1`, the photoluminescence quantum yield came out at 0.11 (in C1CCOC1) and 0.13 (in ClCCl).
As to `c1ccc(-c2cc3cccc4cc(-c5ccccc5)c5cc(-c6cc7[b-]8c(c6)c(-c6ccccc6)cc6cccc(cc7-c7ccccc7)[n+]86)cc2[b-]5[n+]34)cc1`, under “in C1CCCCC1”, the photoluminescence quantum yield stood at 0.12.
As for `CNC(=O)[C@H](C)NC(=O)c1cccc2c1C#Cc1c(N)cccc1OCCCO2`, the photoluminescence quantum yield reads like this: (in CC#N) 0.25; (in ClCCl) 0.44.
Consider `CC1(C)C(/C=C/c2cc3ccc(O)cc3oc2=O)=[N+](CCCS(=O)(=O)[O-])c2ccc(S(=O)(=O)O)cc21`, for which the photoluminescence quantum yield (in CCO) was 0.031, the photoluminescence quantum yield (in CS(C)=O) came to 0.012 and the photoluminescence quantum yield (in O) turned out to be 0.013.
For `Cc1ccc(/C=C/c2nc(-c3cccc([N+](=O)[O-])c3)[nH]c2/C=C/c2ccc(C)cc2)cc1`, under “in ClCCl”, the photoluminescence quantum yield was determined as 0.
On to `F[B-]1(F)n2c(nc3c4ccccc4c4ccccc4c32)-c2cccc[n+]21`, for which the photoluminescence quantum yield (in CC#N) was found to be 0.08; the photoluminescence quantum yield (in CCCCCC) came out at 0.95; the photoluminescence quantum yield (in CO) stood at 0.14; the photoluminescence quantum yield (in ClC(Cl)Cl) is 0.3; the photoluminescence quantum yield (in ClCCl) stood at 0.32.
In the case of `c1ccc(-c2cn3ccc[n+]3[n-]2)cc1`, for the setting “in ClCCl”, the photoluminescence quantum yield was 0.03.
In the case of `COc1ccc(-c2nc(C)cc(-c3ccc(-n4c5ccccc5c5ccccc54)cc3)n2)cc1`, the photoluminescence quantum yield reads like this: (in C1CCOC1) 0.47; (in CN(C)C=O) 0.68; (in Cc1ccccc1) 0.46; (in ClC(Cl)Cl) 0.65.
On to `CC(C)(C)c1ccc2c(c1)c1cc(C(C)(C)C)ccc1n2-c1ccc2c(c1)C(=O)c1ccc(-n3c4ccc(C(C)(C)C)cc4c4cc(C(C)(C)C)ccc43)cc1C2=O`, for which the photoluminescence quantum yield runs as follows: (in Cc1ccccc1) 0.15; (in c1ccc2c(c1)c1ccccc1n2-c1ccc(-c2ccc(-n3c4ccccc4c4ccccc43)cc2)cc1) 0.52.
For `COc1ccc(C(=Cc2ccc(/C=C(\C#N)c3ccc([N+](=O)[O-])cc3)cc2)c2ccc(OC)cc2)cc1`, the photoluminescence quantum yield (in C1CCOC1) came out at 0.045.
In the case of `Cc1nc(-c2ccc(N3c4ccccc4C(c4ccccc4)(c4ccccc4)c4ccccc43)cc2)cc(-c2ccc(N3c4ccccc4C(c4ccccc4)(c4ccccc4)c4ccccc43)cc2)n1`, the photoluminescence quantum yield is, setting by setting: (in Cc1ccccc1) 0.54; (in O=P(c1ccccc1)(c1ccccc1)c1ccc2oc3ccc(P(=O)(c4ccccc4)c4ccccc4)cc3c2c1) 0.92.
With `COc1ccc(-c2cnc3cccc(-c4ccccc4)n23)cc1`, the photoluminescence quantum yield (in ClCCl) turned out to be 0.26.
`CCCCCC(=O)c1ccc2c3c(sc2c1)-c1ccccc1P3(=O)c1ccccc1` (configuration not stated): the photoluminescence quantum yield (in ClCCl) stood at 0.15.
For `CCn1c2ccccc2c2cc(-c3cc(-c4ccc5c(c4)c4ccccc4n5CC)nc(N4CCCCC4)n3)ccc21`, the photoluminescence quantum yield by setting is: (in C1CCOC1) 0.15; (in CCOC(C)=O) 0.14; (in CN(C)C=O) 0.17; (in Cc1ccccc1) 0.16; (in ClCCl) 0.15.
As for `CN(C)C1=Nc2cccc3cccc1c23`, the photoluminescence quantum yield (in CC#N) stood at 0.0066.
Compound `Cc1ccc2nc3cc4c(cc3c(-c3ccccc3)c2c1)[Si](C)(C)O[Si]4(C)C` returned a photoluminescence quantum yield (in ClCCl) of 0.27.
For the compound `Cc1sc(Cl)cc1-c1nc(-c2ccc(Cl)cc2)[nH]c1-c1cc(Cl)sc1C`, the photoluminescence quantum yield (in CC#N) stood at 0.114.
The same measure, in the same setting: with `N#Cc1nn(-c2ccccc2Cl)nc1N1CCCC1` the figure was 0.607.
With `C(#Cc1ccc(-n2c3ccccc3c3ccccc32)cc1)c1ccc(-c2nc(-c3ccc(C#Cc4ccc(-n5c6ccccc6c6ccccc65)cc4)cc3)nc(-c3ccc(C#Cc4ccc(-n5c6ccccc6c6ccccc65)cc4)cc3)n2)cc1`, the photoluminescence quantum yield by setting is: (in C1CCOC1) 0.69; (in CC#N) 0.02; (in CCCCCC) 0.94; (in Cc1ccccc1) 1; (in ClCCl) 0.67.
In turn, `COC(=O)[C@@]12N=N[C@@H](C3C[C@H]31)[C@@H]1C[C@@H]12` (some centres not stated) had a photoluminescence quantum yield (in CC#N) of 0.0066.
Under “in CS(C)=O”, `c1cnc2c(c1)c1nc(-c3ccc(-c4nc5c6cccnc6c6ncccc6c5[nH]4)cc3)[nH]c1c1cccnc12` gave a photoluminescence quantum yield of 0.84.
Take `Cc1ccc(C(=O)/N=c2\oc3cccc4c5c(-c6ccccc6)oc6cccc(c(c2-c2ccccc2)c34)c65)cc1`: the photoluminescence quantum yield (in ClC(Cl)Cl) is 0.17.

For the origin of these results see the Deep4Chem optical property database.
